# Test results: article PMC12700049, “Peptides From Adzuki Bean and Soybean Improved Insulin‐AKT Signaling‐Related Pathways in Healthy and Insulin‐Resistant States in Human Liver Cells” (Molecular Nutrition & Food Research, 2025)
# Marks after values point to notes of the source that are not given here. Peptide text beside a SMILES is read from it.
# Legend:
# [1] = target: T1, DPP IV activity in HepG2 cells (Homo sapiens, UniProt P27487); experiment: Luminescence DPP IV assay in the cell‐based system (HepG2); settings: 24 h treatment; for IC20: read-out: DPP IV inhibition IC20
# T1 construct: dose‐response in vitro experiments conducted using the HepG2 cell culture; host or cells: HepG2
# Procedure: (§1) HepG2 cells were seeded in either 96‐well plates or 6‐well plates for 24 h. For the healthy cell model (NG), cells were incubated in a medium with a healthy/normal glucose level (5.5 mM glucose), and no stimulation was performed. For the insulin‐resistant cell model (HG), cells were stimulated according to the methods used in a previous publication. In brief, cells were treated for 24 h using 25 mM glucose with 100 nM insulin to stimulate insulin resistance in the HepG2 cells. After seeding or insulin‐resistant stimulation, the cells were treated with selected pure AB7S peptides, selected pure S7S peptides, peptide Asp‐Leu‐Asp‐Val (DLDV; peptide with no DPP IV inhibitory capacity), or 1 nM linagliptin (DPP IV inhibitor) for 24 h. […] Treated cells were used to either perform cell viability assays or were collected, centrifuged, and stored at −80°C until being used.
# DPP IV inhibition was measured using the luminescence DPPIV‐GLO Protease assay (G8351, Promega, Madison, WI). In brief, treated cells were incubated with three concentrations of selected pure AB7S peptides or selected pure S7S peptides for 24 h, and linagliptin (1 nM) was used as a positive control. Treated cells were collected and stored at −80°C for no more than one week until being used for the DPPIV‐GLO protease assay. Percent inhibition was calculated, and results were presented as percent inhibition per log (µg peptide/mL). The IC values of the peptides were calculated using Origin Pro software (Version 2021, OriginLab Corporation, Northampton, MA, USA).
# [2] = target: purified human DPP IV enzyme (Homo sapiens, UniProt P27487); experiment: Luminescence DPPIV‐GLO DPP IV inhibition biochemical assay (cell‐free system)
# Procedure: The luminescence DPPIV‐GLO Protease assay (G8351, Promega, Madison, WI) was performed to measure the DPP IV inhibitory capacity of selected AB7S peptides and S7S peptides. Percent inhibition was calculated for each sample. Results were presented as percent inhibition per log (µg peptide/mL). The inhibitory concentration (IC) values of the peptides were calculated using Origin Pro software (Version 2021, OriginLab Corporation, Northampton, MA, USA).
# [3] = system: AMPK1/AMPK2 (AMP‐activated protein kinase catalytic subunit alpha‐1/2); experiment: Insulin receptor phospho antibody microarray: AMPK1/AMPK2; assay type: cell-based, human; settings: VP 9.58 µM, HepG2, healthy state, related to the untreated control, p < 0.05
# Procedure: (§2) Cells treated with VP (9.58 µM) and the untreated cells were tested using immunoassay proteomics. The IC50 value of VP obtained from the luminescence‐based DPP IV inhibition biochemical assay was used as the treatment concentration. Cells were treated as described in Section 2.4. An insulin receptor microarray was performed according to the manufacturer's instructions to test the protein expression of markers in the insulin signaling pathway (Insulin Receptor Phospho Antibody Array, PIG219, Full Moon BioSystem, Sunnyvale, CA, USA). Array signals were visualized with a 20× objective using a Widefield Fluorescence Microscope (Carl Zeiss AG, Germany) and were analyzed as previously described. Student's t‐test was used to assess the differences between the VP treatment and the negative control.
# Glut 2 [4] = experiment: Glut 2 immunocytochemical fluorescence confocal microscopy in HepG2 cells; assay type: cell-based, human; settings: VP 9.58 µM, linagliptin 1 nM; for Glut 2 fluorescence emission, higher than the untreated control: healthy state; for Glut 2 fluorescence emission, increase compared to the untreated insulin‐resistant cells: insulin‐resistant state
# Procedure: as §1
# The expression of Glut 2 due to the peptide treatment (VP, 9.58 µM) was investigated in HepG2 cells seeded in Ibidi imaging dish (Ibidi, Fitchburg, WI, USA). Cells were treated as described in Section 2.4. The positive control (1 nM linagliptin) was also tested. The immunocytochemical fluorescence confocal microscopy was performed according to a previous procedure. In brief, cells were fixed, permeabilized, blocked, and incubated with Glut 2 antibodies (07‐1402, 1:1000) overnight at 4°C. Cells were then washed twice, incubated with anti‐rabbit IgG secondary antibody (A‐11012; 1:200) for 2 h in the dark, cured with ProLong Gold Antifade Reagent with DAPI (4′,6‐diamidino‐2‐phenylindole), and stored at 4°C until imaging. Cell images were obtained with 63× oil immersion objective (Glut 2: excitation wavelength: 557 nm, emission wavelength: 572 nm; DAPI: excitation wavelength: 353 nm; emission wavelength: 465 nm) using a Carl Zeiss LSM 900 Laser Scanning Microscope (Carl Zeiss AG, Germany).
# Akt‐1 = experiment: Western blot Akt‐1 protein expression in HepG2 cells; assay type: cell-based, human; settings: VP 9.58 µM, IPA 7.86 µM, DLDV 1790 µM, 24 h; for Akt‐1 protein expression, increase over untreated controls: healthy state (NG, 5.5 mM glucose), linagliptin 1 nM; for Akt‐1 protein expression, increase over untreated insulin‐resistant cells: insulin‐resistant state (HG, 25 mM glucose with 100 nM insulin)
# Procedure: as §1
# (§3) Cells treated with VP (9.58 µM), IPA (7.86 µM), DLDV (1790 µM), or linagliptin (1 nM) and untreated cells were used for western blot. In brief, membranes were incubated with conjugated antibodies for human IRS‐1 (sc‐8038 HRP, 1:100) and Akt‐1 (sc‐5298 HRP, 1:100), or ACCα (sc‐137104 HRP, 1:100) overnight at 4°C and washed. Membranes were also incubated with unconjugated primary antibodies for human Glut 2 (07‐1402, 1:1000), then washed and probed with secondary sheep anti‐mouse and donkey anti‐rabbit antibodies (NA931V and NA934V, 1:2500, 2 h, room temperature; Cytiva, Marlborough, MA, USA). GAPDH (sc‐25778 HRP or sc‐47724, 1:4000) was used as the protein loading control and was used to evaluate the relative expression of each protein. Clarity Western ECL Substrate (Bio‐Rad, Hercules, CA, USA) and ImageQuant 800 System (GE Healthcare, Buckinghamshire, UK) were used for imaging.
# [5] = system: Shc (SHC‐transforming protein 1); experiment: Insulin receptor phospho antibody microarray: Shc; assay type: cell-based, human; settings: VP 9.58 µM, HepG2, healthy state, related to the untreated control, p < 0.05
# Procedure: as §2
# Glut 2 [6] = experiment: Western blot Glut 2 protein expression in HepG2 cells; assay type: cell-based, human; settings: for Glut 2 protein expression, increase over untreated controls: healthy state (NG, 5.5 mM glucose), linagliptin 1 nM; for Glut 2 protein expression, increase over untreated controls / Glut 2 protein expression, increase over untreated insulin‐resistant cells: VP 9.58 µM, IPA 7.86 µM, DLDV 1790 µM, 24 h; for Glut 2 protein expression, increase over untreated insulin‐resistant cells: insulin‐resistant state (HG, 25 mM glucose with 100 nM insulin)
# Procedure: as §1, §3
# [7] = system: Akt1S1 (AKT1 substrate 1); experiment: Insulin receptor phospho antibody microarray: Akt1S1; assay type: cell-based, human; settings: VP 9.58 µM, HepG2, healthy state, related to the untreated control, p < 0.05
# Procedure: as §2
# IR (Insulin receptor) = experiment: Insulin receptor phospho antibody microarray: IR; assay type: cell-based, human; settings: VP 9.58 µM, HepG2, healthy state, related to the untreated control, p < 0.05
# Procedure: as §2
# IRS‐1 = experiment: Western blot IRS‐1 protein expression in HepG2 cells; assay type: cell-based, human; settings: VP 9.58 µM, IPA 7.86 µM, DLDV 1790 µM, 24 h; for IRS‐1 protein expression, increase over untreated controls: healthy state (NG, 5.5 mM glucose), linagliptin 1 nM; for IRS‐1 protein expression, increase over untreated insulin‐resistant cells: insulin‐resistant state (HG, 25 mM glucose with 100 nM insulin)
# Procedure: as §1, §3
# [8] = system: IRS‐1 (Insulin receptor substrate 1); experiment: Insulin receptor phospho antibody microarray: IRS‐1; assay type: cell-based, human; settings: VP 9.58 µM, HepG2, healthy state, related to the untreated control, p < 0.05
# Procedure: as §2
# [9] = system: mTOR (Mechanistic target of rapamycin); experiment: Insulin receptor phospho antibody microarray: mTOR; assay type: cell-based, human; settings: VP 9.58 µM, HepG2, healthy state, related to the untreated control, p < 0.05
# Procedure: as §2
# [10] = system: Akt (AKT serine/threonine kinase); experiment: Insulin receptor phospho antibody microarray: Akt; assay type: cell-based, human; settings: VP 9.58 µM, HepG2, healthy state, related to the untreated control, p < 0.05
# Procedure: as §2
# [11] = system: PP2A‐α (Protein phosphatase 2 alpha); experiment: Insulin receptor phospho antibody microarray: PP2A‐α; assay type: cell-based, human; settings: VP 9.58 µM, HepG2, healthy state, related to the untreated control, p < 0.05
# Procedure: as §2
# ACCα = experiment: Western blot ACCα protein expression in HepG2 cells; assay type: cell-based, human; settings: VP 9.58 µM, IPA 7.86 µM, DLDV 1790 µM, 24 h; for ACCα protein expression, change versus untreated controls: healthy state (NG, 5.5 mM glucose), linagliptin 1 nM; for ACCα protein expression, change versus untreated insulin‐resistant cells: insulin‐resistant state (HG, 25 mM glucose with 100 nM insulin)
# Procedure: as §1, §3
# T1 sequence (P27487 whole entry): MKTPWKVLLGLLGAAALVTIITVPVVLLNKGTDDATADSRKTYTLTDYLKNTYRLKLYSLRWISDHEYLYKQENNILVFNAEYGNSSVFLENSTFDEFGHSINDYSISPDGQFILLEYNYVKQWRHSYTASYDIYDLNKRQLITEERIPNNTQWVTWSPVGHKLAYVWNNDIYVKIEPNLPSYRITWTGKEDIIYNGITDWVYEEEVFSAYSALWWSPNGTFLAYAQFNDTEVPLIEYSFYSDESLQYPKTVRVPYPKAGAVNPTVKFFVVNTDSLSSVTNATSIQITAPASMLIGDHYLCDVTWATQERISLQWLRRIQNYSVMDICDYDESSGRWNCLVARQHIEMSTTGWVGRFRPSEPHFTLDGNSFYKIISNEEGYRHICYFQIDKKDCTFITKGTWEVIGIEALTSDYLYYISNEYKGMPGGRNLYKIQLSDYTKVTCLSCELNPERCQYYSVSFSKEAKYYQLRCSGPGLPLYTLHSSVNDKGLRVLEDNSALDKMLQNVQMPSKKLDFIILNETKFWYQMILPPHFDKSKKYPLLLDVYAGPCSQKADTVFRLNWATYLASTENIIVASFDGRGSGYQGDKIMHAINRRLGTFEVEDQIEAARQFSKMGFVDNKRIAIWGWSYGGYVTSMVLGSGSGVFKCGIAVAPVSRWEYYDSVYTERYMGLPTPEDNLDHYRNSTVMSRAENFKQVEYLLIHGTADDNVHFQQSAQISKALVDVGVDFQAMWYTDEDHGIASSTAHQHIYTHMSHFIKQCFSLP
# purified human DPP IV enzyme, sequence (P27487 whole entry): as above
molecule,measurement,setting,value
"CC[C@H](C)[C@H](N)C(=O)N1CCC[C@H]1C(=O)N[C@@H](C)C(=O)O [IPA, Ile‐Pro‐Ala] (H-Ile-Pro-Ala-OH)",IC20,[1],3.66 µM
same,IC50,[1]; read-out: DPP IV inhibition IC50,7.86 µM
same,IC20,[2],33.1 µM
same,IC50,[2],70.5 µM
"CC(C)[C@H](N)C(=O)N1CCC[C@H]1C(=O)O [VP, Val‐Pro] (H-Val-Pro-OH; N-terminus and C-terminus assumed)",AMPK1/AMPK2 Phosphorylated/Non‐phosphorylated ratio,[3],3.5^* Fold Change
same,"Glut 2 fluorescence emission, higher than the untreated control",Glut 2 [4],36%
same,"Glut 2 fluorescence emission, increase compared to the untreated insulin‐resistant cells",Glut 2 [4],> 14%
same,"Akt‐1 protein expression, increase over untreated controls",Akt‐1,> 25%
same,"Akt‐1 protein expression, increase over untreated insulin‐resistant cells",Akt‐1,> 25%
same,IC20,[1],4.69 µM
same,Shc Phosphorylated/Non‐phosphorylated ratio,[5],3.2^* Fold Change
same,Power in increasing Glut 2 protein expression relative to the digested adzuki bean β‐vignin protein,"Glut 2 [6]; HepG2, comparison based on previous data",> 100 times
same,"Glut 2 protein expression, increase over untreated controls",Glut 2 [6],> 25%
same,"Glut 2 protein expression, increase over untreated insulin‐resistant cells",Glut 2 [6],> 25%
same,Akt1S1 Phosphorylated/Non‐phosphorylated ratio,[7],1.3^* Fold Change
same,IR Phosphorylated/Non‐phosphorylated ratio,IR (Insulin receptor),1.7^* Fold Change
same,"IRS‐1 protein expression, increase over untreated controls",IRS‐1,> 50%
same,"IRS‐1 protein expression, increase over untreated insulin‐resistant cells",IRS‐1,> 25%
same,IRS‐1 Phosphorylated/Non‐phosphorylated ratio,[8],0.2^* Fold Change
same,mTOR Phosphorylated/Non‐phosphorylated ratio,[9],3.6^* Fold Change
same,Akt Phosphorylated/Non‐phosphorylated ratio,[10],3.9^* Fold Change
same,PP2A‐α Phosphorylated/Non‐phosphorylated ratio,[11],2.6^* Fold Change
same,"ACCα protein expression, change versus untreated controls",ACCα,no changes
same,"ACCα protein expression, change versus untreated insulin‐resistant cells",ACCα,not different
same,IC20,[2],200 µM
"CC#CCn1c(N2CCC[C@@H](N)C2)nc2c1c(=O)n(Cc1nc(C)c3ccccc3n1)c(=O)n2C [linagliptin, Linagliptin, reference compound]","Glut 2 fluorescence emission, higher than the untreated control",Glut 2 [4],36%
same,"Glut 2 fluorescence emission, increase compared to the untreated insulin‐resistant cells",Glut 2 [4],> 14%
same,"Akt‐1 protein expression, increase over untreated controls",Akt‐1,> 25%
same,"Glut 2 protein expression, increase over untreated controls",Glut 2 [6],> 25%
same,"IRS‐1 protein expression, increase over untreated controls",IRS‐1,> 50%
same,"ACCα protein expression, change versus untreated controls",ACCα,no changes
Asp‐Leu‐Asp‐Val [DLDV],"Akt‐1 protein expression, increase over untreated controls",Akt‐1,no differences
same,"Akt‐1 protein expression, increase over untreated insulin‐resistant cells",Akt‐1,no differences
same,"Glut 2 protein expression, increase over untreated controls",Glut 2 [6],no differences
same,"Glut 2 protein expression, increase over untreated insulin‐resistant cells",Glut 2 [6],no differences
same,"IRS‐1 protein expression, increase over untreated controls",IRS‐1,no differences
same,"IRS‐1 protein expression, increase over untreated insulin‐resistant cells",IRS‐1,no differences
same,"ACCα protein expression, change versus untreated controls",ACCα,no differences
same,"ACCα protein expression, change versus untreated insulin‐resistant cells",ACCα,no differences
Leu‐Leu‐Ser [LLS],IC20,[1],7.13 µM
same,IC20,[2],40.1 µM
Phe‐Asn‐Glu [FNE],DPP IV inhibition IC5,[1],63.52 µM
same,DPP IV inhibition IC5,[2],5.65 µM
Pro‐Met [PM],IC20,[1],5.14 µM
same,IC20,[2],59.4 µM
